Laboratory results: ChEMBL document CHEMBL6120971 (J Med Chem, 2024)
Activity calls are given as the source filed them. No cut-off for these calls is given here.

Legend:
[1] = MRT (0 to infinity) in male Sprague-Dawley rat at 10 mg/kg, po measured after 24 hrs by LC-MS/MS analysis; type: ADME, organism-based; conditions: in vivo
PC-9 [2] = experiment: Inhibition of c-MET/Akt signaling pathway activation in human PC-9 cells at 3.125 to 50 nM incubated for 24 hrs by Western blot analysis; type: cell-based; conditions: dose 3.125-50 nM
[3] = target: T1, Protein cereblon/Hepatocyte growth factor receptor (Homo sapiens, UniProt P08581+Q96SW2); experiment: PROTAC activity at CRBN/c-MET in human MKN-45 cells assessed as induction of c-MET degradation at 100 nM preincubated with MLN4924 for 2 hrs followed by compound addition and measured after 24 hrs by Western blot analysis; type: cell-based
Mus musculus [4] = experiment: Downregulation of c-MET protein level in BALB/c nude mouse lung xenografted with human MKN-45 cells at 10 mg/kg, po measured after 48 hrs by Western blot analysis; type: functional, organism-based
Hs746T = experiment: Inhibition of c-MET/Akt signaling pathway activation in human Hs746T cells at 12.5 to 200 nM incubated for 24 hrs by Western blot analysis; type: cell-based; conditions: dose 12.5-200 nM
[5] = target: T1, Protein cereblon/Hepatocyte growth factor receptor; experiment: PROTAC activity at CRBN/c-MET in human MKN-45 cells assessed as induction of c-MET degradation at 100 nM preincubated with pomalidomide for 2 hrs followed by compound addition and measured after 24 hrs by Western blot analysis; type: cell-based
Mus musculus [6] = experiment: Downregulation of c-MET protein level in BALB/c nude mouse liver xenografted with human MKN-45 cells at 10 mg/kg, po measured after 48 hrs by Western blot analysis; type: functional, organism-based
[7] = Half-life in male Sprague-Dawley rat at 10 mg/kg, iv measured after 24 hrs by LC-MS/MS analysis; type: ADME, organism-based; conditions: in vivo
PC-9 [8] = experiment: Induction of apoptosis in human PC-9 cells at 3.125 to 50 nM incubated for 48 hrs by Annexin V-FITC/PI staining based flow cytometric analysis; type: functional, cell-based; conditions: dose 3.125-50 nM
[9] = Toxicity in BALB/c nude mouse xenografted with human MKN-45 cells assessed as body weight loss at 10 to 40 mg/kg, po administered once daily for 21 days; type: organism-based; conditions: in vivo, 504 h, dose 10-40 mg/kg, time 21 day
[10] = target: Protein cereblon/Importin subunit alpha-1 (Homo sapiens) (UniProt P52292+Q96SW2); experiment: PROTAC activity at CRBN/KPNA2 in human MKN-45 cells assessed as induction of c-MET degradation at 6.25 to 100 nM incubated for 24 hrs by Western blot analysis; type: cell-based; conditions: dose 6.25-100 nM
MKN-45 [11] = experiment: Downregulation of ULK2B protein level in human MKN-45 cells at 100 nM incubated for 24 hrs by MS-based quantitative proteomics analysis; type: functional, cell-based
[12] = target: T1, Protein cereblon/Hepatocyte growth factor receptor; experiment: PROTAC activity at CRBN/c-MET in human MKN-45 cells assessed as induction of c-MET degradation at 6.25 nM incubated for 24 hrs by Western blot analysis; type: cell-based
[13] = target: T1, Protein cereblon/Hepatocyte growth factor receptor; experiment: PROTAC activity at CRBN/c-MET in human Hs746T cells assessed as induction of c-MET degradation at 12.5 to 200 nM incubated for 24 hrs by Western blot analysis; type: cell-based; conditions: dose 12.5-200 nM
[14] = Tmax in male Sprague-Dawley rat at 10 mg/kg, po measured after 24 hrs by LC-MS/MS analysis; type: ADME, organism-based; conditions: in vivo
[15] = Tmax in male Sprague-Dawley rat at 10 mg/kg, iv measured after 24 hrs by LC-MS/MS analysis; type: ADME, organism-based; conditions: in vivo
[16] = MRT (0 to infinity) in male Sprague-Dawley rat at 10 mg/kg, iv measured after 24 hrs by LC-MS/MS analysis; type: ADME, organism-based; conditions: in vivo
MKN-45 [17] = experiment: Upregulation of HSPG2 protein level in human MKN-45 cells at 100 nM incubated for 24 hrs by MS-based quantitative proteomics analysis; type: functional, cell-based
[18] = Oral bioavailability in male Sprague-Dawley rat at 10 mg/kg measured after 24 hrs by LC-MS/MS analysis; type: ADME, organism-based; conditions: in vivo
[19] = Toxicity in BALB/c nude mouse xenografted with human MKN-45 cells assessed as effect on kidney morphology at 10 to 40 mg/kg, po administered once daily for 21 days by H and E staining based analysis; type: organism-based; conditions: in vivo, 504 h, dose 10-40 mg/kg, time 21 day
[20] = target: T1, Protein cereblon/Hepatocyte growth factor receptor; experiment: In vivo PROTAC activity at CRBN/c-MET in BALB/c nude mouse xenografted with human MKN-45 cells assessed as decrease in c-MET protein level in tumor at 10 to 40 mg/kg, po administered once daily for 21 days and measured after 24 hrs post last dose by Western blot analysis; type: functional, organism-based; conditions: dose 10-40 mg/kg, time 22.0 day
[21] = target: T1, Protein cereblon/Hepatocyte growth factor receptor; experiment: PROTAC activity at CRBN/c-MET in human PC-3 cells assessed as induction of c-MET degradation at 12.5 to 100 nM incubated for 24 hrs by Western blot analysis; type: cell-based; conditions: dose 12.5-100 nM
[22] = target: T1, Protein cereblon/Hepatocyte growth factor receptor; experiment: PROTAC activity at CRBN/c-MET in human NGEC cells assessed as induction of c-MET degradation upto 50 nM incubated for 24 hrs by Western blot analysis; type: cell-based; conditions: NGEC cell
[23] = Downregulation of c-MET protein level in human MKN-45 cells assessed as fold change at 100 nM incubated for 24 hrs by MS-based quantitative proteomics analysis relative to control; type: functional
[24] = target: T1, Protein cereblon/Hepatocyte growth factor receptor; experiment: PROTAC activity at CRBN/c-MET in human MKN-45 cells assessed as induction of c-MET degradation at 100 nM preincubated with capmatinib for 2 hrs followed by compound addition and measured after 24 hrs by Western blot analysis; type: cell-based
PC-9 [25] = experiment: Cell cycle arrest in human PC-9 cells assessed as accumulation of cells at G0/G1 phase incubated for 48 hrs by PI staining based flow cytometric analysis; type: functional; conditions: dose 3.125-50 nM
[26] = target: T1, Protein cereblon/Hepatocyte growth factor receptor; experiment: PROTAC activity at CRBN/c-MET in human MKN-45 cells assessed as induction of c-MET degradation at 100 nM incubated for 2 to 16 hrs by Western blot analysis; type: cell-based; conditions: time 2-16 hrs
[27] = Half-life in male Sprague-Dawley rat at 10 mg/kg, po measured after 24 hrs by LC-MS/MS analysis; type: ADME, organism-based; conditions: in vivo
[28] = AUC (0 to infinity) in male Sprague-Dawley rat at 10 mg/kg, iv measured after 24 hrs by LC-MS/MS analysis; type: ADME, organism-based; conditions: in vivo
[29] = Cmax in male Sprague-Dawley rat at 10 mg/kg, po measured after 24 hrs by LC-MS/MS analysis; type: ADME, organism-based; conditions: in vivo
MKN-45 [30] = experiment: Antitumor activity against human MKN-45 cells xenografted in BALB/c nude mouse assessed as reduction in tumor growth administered orally as once daily dose for 21 days; type: functional; conditions: dose 10-40 mg/kg, route po, time 21.0 day
[31] = Downregulation of c-MET protein level in human MKN-45 cells assessed as residual activity at 100 nM incubated for 24 hrs by MS-based quantitative proteomics analysis relative to control; type: functional
[32] = Toxicity in BALB/c nude mouse xenografted with human MKN-45 cells assessed as effect on lung morphology at 10 to 40 mg/kg, po administered once daily for 21 days by H and E staining based analysis; type: organism-based; conditions: in vivo, 504 h, dose 10-40 mg/kg, time 21 day
MKN-45 [33] = experiment: Antiproliferative activity against human MKN-45 cells incubated for 72 hrs by CCK8 assay; type: functional, cell-based; conditions: MKN-45, 72 h

T1 sequence (P08581 25-1390 limits assumed): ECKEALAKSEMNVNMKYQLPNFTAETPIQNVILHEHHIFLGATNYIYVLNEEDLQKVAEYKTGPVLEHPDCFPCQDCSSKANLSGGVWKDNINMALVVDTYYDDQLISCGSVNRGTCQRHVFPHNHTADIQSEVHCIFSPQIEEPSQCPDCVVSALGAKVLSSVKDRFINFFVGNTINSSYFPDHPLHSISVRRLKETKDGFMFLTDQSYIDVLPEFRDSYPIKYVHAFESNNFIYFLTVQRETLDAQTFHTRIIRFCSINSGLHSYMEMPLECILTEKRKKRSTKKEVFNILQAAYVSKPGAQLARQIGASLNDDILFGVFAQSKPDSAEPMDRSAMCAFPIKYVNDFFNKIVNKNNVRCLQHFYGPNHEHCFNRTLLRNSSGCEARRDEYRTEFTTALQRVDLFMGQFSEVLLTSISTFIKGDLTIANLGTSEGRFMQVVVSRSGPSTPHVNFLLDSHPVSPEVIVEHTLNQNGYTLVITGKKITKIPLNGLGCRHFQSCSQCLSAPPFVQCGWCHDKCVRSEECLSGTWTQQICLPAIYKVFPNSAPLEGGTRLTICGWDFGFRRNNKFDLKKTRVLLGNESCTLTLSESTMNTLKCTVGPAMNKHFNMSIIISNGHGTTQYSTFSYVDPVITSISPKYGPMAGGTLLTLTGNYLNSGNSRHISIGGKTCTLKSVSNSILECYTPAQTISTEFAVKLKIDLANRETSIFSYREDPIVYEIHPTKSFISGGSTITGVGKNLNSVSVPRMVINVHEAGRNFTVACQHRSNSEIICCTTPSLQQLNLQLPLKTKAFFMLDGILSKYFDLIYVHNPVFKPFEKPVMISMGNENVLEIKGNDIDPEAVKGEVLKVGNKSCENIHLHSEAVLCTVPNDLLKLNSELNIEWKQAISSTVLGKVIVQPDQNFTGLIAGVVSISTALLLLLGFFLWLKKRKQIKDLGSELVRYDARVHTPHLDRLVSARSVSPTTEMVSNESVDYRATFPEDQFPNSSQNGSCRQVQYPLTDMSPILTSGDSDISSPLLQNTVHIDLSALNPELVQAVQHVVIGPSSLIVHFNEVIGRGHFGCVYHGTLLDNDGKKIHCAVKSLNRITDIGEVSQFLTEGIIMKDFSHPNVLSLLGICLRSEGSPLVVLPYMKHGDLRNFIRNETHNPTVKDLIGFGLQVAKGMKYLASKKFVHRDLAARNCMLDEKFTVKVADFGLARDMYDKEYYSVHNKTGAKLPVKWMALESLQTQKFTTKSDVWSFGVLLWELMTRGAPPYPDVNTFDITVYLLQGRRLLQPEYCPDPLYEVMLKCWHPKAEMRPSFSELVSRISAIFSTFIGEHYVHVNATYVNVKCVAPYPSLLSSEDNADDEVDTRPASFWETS
T1 sequence (Q96SW2 whole entry partner): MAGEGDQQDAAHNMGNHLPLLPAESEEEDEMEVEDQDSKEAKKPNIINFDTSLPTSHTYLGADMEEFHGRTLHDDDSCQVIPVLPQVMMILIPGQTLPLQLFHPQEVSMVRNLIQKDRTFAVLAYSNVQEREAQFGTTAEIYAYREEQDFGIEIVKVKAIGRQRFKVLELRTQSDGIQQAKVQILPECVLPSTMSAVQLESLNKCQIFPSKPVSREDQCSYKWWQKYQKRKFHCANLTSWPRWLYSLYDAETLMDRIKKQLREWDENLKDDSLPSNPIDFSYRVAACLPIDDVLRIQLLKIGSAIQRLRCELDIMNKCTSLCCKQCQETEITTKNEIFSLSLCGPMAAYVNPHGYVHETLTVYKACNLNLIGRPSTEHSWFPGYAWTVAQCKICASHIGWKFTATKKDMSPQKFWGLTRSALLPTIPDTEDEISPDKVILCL

SMILES: O=C1CCC(N2C(=O)c3ccc(N4CCN(CC5CCN(C(=O)c6ccc(-c7cnc8ncc(Cc9ccc%10ncccc%10c9)n8n7)cc6F)CC5)CC4)cc3C2=O)C(=O)N1 (centres undefined)
- MRT inf [1]: 6.66 h
- inhibition (PC-9 [2]): Active
- Activity [3]: inactive
- Activity (Mus musculus [4]): Not active; Favorable Tissue Specificity Of Compound Observed
- inhibition (Hs746T): Active
- Activity [5]: inactive
- Activity (Mus musculus [6]): Not active; Favorable Tissue Specificity Of Compound Observed
- half-life [7]: 5.35 h
- Activity (PC-9 [8]): Active; Little Effect Observed
- Activity [9]: Non-toxic
- Activity [10]: inactive
- Activity (MKN-45 [11]): Active
- Activity [12]: Active
- Activity [13]: Active
- Tmax [14]: 2 h
- Tmax [15]: 4.8 min
- MRT inf [16]: 2.56 h
- Activity (MKN-45 [17]): Active
- bioavailability [18]: 16.3%
- Activity [19]: Non-toxic
- Activity [20]: Active
- Activity [21]: inactive
- Activity [22]: Weak_effect
- fold change (FC) [23]: 29.6
- Activity [24]: inactive
- Activity (PC-9 [25]): Dose-dependent-effect
- Activity [26]: Active
- half-life [27]: 4.13 h
- AUC(0-inf) [28]: 2520 ng·h/mL
- Cmax [29]: 70.7 ng/mL
- Activity (MKN-45 [30]): Dose-dependent-effect
- Activity [31]: 3.38%
- Activity [32]: Non-toxic
- IC50 (MKN-45 [33]): 4.37 nM
